Data published in patent US4977181A, “Tromethamine salt of 1-methyl-beta-oxo-alpha-(phenylcarbamoyl)-2-pyrrolepropionitrile” (priority 1989, dated 1990).
Structures can show the parent of a compound that is named as a salt.

Legend:
Sprague-Dawley rats = test: Acute Toxicity Study (single oral dose, mortality); type: in vivo, rat (Sprague-Dawley); conditions: for Mortality, Female / Mortality, Male: single oral gavage, observed for 15 days; for Mortality, Female: female rats; for Mortality, Male: male rats
Experimental: (§1) A single equimolar dose of each compound is administered orally by gavage as a 3% corn starch suspension to 5 female and 5 male Sprague-Dawley rats. The animals are there observed for 15 days.
(§2) The comparative incidence of mortality for the free acid of formula I, the triethanolamine salt thereof and the tromethamine salt of formula II are as follows: […]

[1] = antiinflammatory activity; type: in vivo; conditions: in words
Experimental: The compound can be administered to the animals either enterally, preferably orally, parenterally, e.g. subcutaneously or intravenously, or topically, for example, in the form of aqueous solutions or suspensions. The applied dosage may range between about 0.1 and 100 mg/kg/day, preferably between about 1 and 50 mg/kg/day. The tests include the classical in vivo assay methods for said activities, such as the carrageenin paw-edema, adjuvant arthritis tests in rats, and the canine synovitis test.

cartilage matrix = test: inhibition of cartilage matrix degradation; type: cell-based, bovine; conditions: in words
Experimental: The effect on cartilage matrix degradation can be determined in the cartilage-synovium co-culture model of matrix degradation which is carried out as follows:
The proteoglycan matrix of bovine nasal septum cartilage is labeled in vitro by incorporation of ^35 S into glycosaminoglycan. Cartilage slices are incubated overnight in a sulfate-free medium containing ^35 S-sodium sulfate. ^35 S-Labeled cartilage slices are co-cultured with normal synovium explants in multiwell tissue culture plates. After 4 days incubation a 100 μl aliquot of medium is counted. Cartilage slices are hydrolyzed and a 100 μl aliquot of cartilage hydrolysate is counted. The percent ^35 S released into the medium is determined and the percent of inhibition of matrix degradation is calculated.

[2] = tolerability at therapeutically effective doses; type: in vivo
cell-mediated immunity = test: enhancement of depressed cell-mediated immunity; type: in vivo, rat; conditions: in words
Experimental: Immunopotentiating effects can be determined in BCG-immunized animals. In vitro, the enhancement of cell-mediated immunity is determined by measuring the increase in chemotaxis of macrophages isolated from BCG-immunized rats. In vivo, such is determined in the BCG-immunized adjuvant arthritic rat by measuring the effect on delayed hypersensitivity reaction essentially as described in Current Therapeutic Research 30, S34 (1981).

[3] = Acute Toxicity Study (single oral dose, mortality); type: in vivo, rat (Sprague-Dawley); conditions: rat, in vivo, po, 2400 umol/kg, 2.4 millimoles/Kg p.o., rat, both sexes; read-out: mortality rate
Experimental: as §1, §2

[4] = 2.4 Millimoles/Kg, listed as II
[5] = 3.6 Millimoles/Kg, listed as II

Q: For `Cn1cccc1C(=O)C(C#N)C(=O)Nc1ccccc1` (stereo not drawn) [formula I, 1-methyl-beta-oxo-alpha-phenylcarbamoyl-2-pyrrolepropionitrile], which “Mortality, Female” value (Sprague-Dawley rats; 1.2 Millimoles/Kg) is on record?
A: The value was 0/5.

Q: What about the “Mortality, Male” value (Sprague-Dawley rats; 1.2 Millimoles/Kg) of the same compound?
A: The value was 0/5.

Q: What about the “Mortality, Female” value (Sprague-Dawley rats; 2.4 Millimoles/Kg, listed as I) of the same compound?
A: The value was 2/5.

Q: What about the “Mortality, Male” value (Sprague-Dawley rats; 2.4 Millimoles/Kg, listed as I) of the same compound?
A: The value was 2/5.

Q: And the mortality rate (Sprague-Dawley rats; 2.4 millimoles/Kg p.o., rat, both sexes, 21600 min)?
A: Its mortality rate is 40%.

Q: And the “Mortality, Female” value (Sprague-Dawley rats; 3.6 Millimoles/Kg, listed as I)?
A: The value was 4/5.

Q: What about the “Mortality, Male” value (Sprague-Dawley rats; 3.6 Millimoles/Kg, listed as I) of the same compound?
A: Its value is 4/5.

Q: What does the source list for `Cn1cccc1C(=O)C(C#N)C(=O)Nc1ccccc1` (stereo not drawn) [formula II, 1-methyl-beta-oxo-alpha-(phenylcarbamoyl)-2-pyrrolepropionitrile (1:1) tromethamine salt]?
A: antiinflammatory activity [1]: displays antiinflammatory; Mortality, Female (Sprague-Dawley rats; [4]): 0/5; Mortality, Male (Sprague-Dawley rats; [4]): 0/5; deaths (animals) (Sprague-Dawley rats; 2.4 millimoles/Kg p.o., rat, both sexes): 0/10; Mortality, Female (Sprague-Dawley rats; [5]): 5/5; Mortality, Male (Sprague-Dawley rats; [5]): 5/5; acute toxicity compared with free acid of formula I or the triethanolamine salt (Sprague-Dawley rats; rat, in words): less toxic than the free acid of formula I or the triethanolamine salt thereof; inhibition of cartilage matrix degradation (cartilage matrix): inhibition of cartilage matrix degradation; tolerability [2]: well tolerated; undesirable side effects [2]: essentially free of undesirable side effects; enhancement of depressed cell-mediated immunity (cell-mediated immunity): enhancement of depressed cell-mediated immunity

Q: What does the source list for `Cn1cccc1C(=O)C(C#N)C(=O)Nc1ccccc1` (stereo not drawn) [triethanolamine salt, triethanolamine salt of 1-methyl-beta-oxo-alpha-(phenylcarbamoyl)-2-propionitrile]?
A: Mortality, Female (Sprague-Dawley rats; 2.4 Millimoles/Kg): 3/5; Mortality, Male (Sprague-Dawley rats; 2.4 Millimoles/Kg): 2/5; Mortality, Female (Sprague-Dawley rats; 3.6 Millimoles/Kg): 5/5; Mortality, Male (Sprague-Dawley rats; 3.6 Millimoles/Kg): 5/5; mortality at 360 h [3]: 50%
